Experimental data taken from PMC12193374, “Exploring Carboxamide Derivatives as Promising Anticancer Agents: Design, In Vitro Evaluation, and Mechanistic Insights” (International Journal of Molecular Sciences, 2025).

test system: HCT-116 human colorectal carcinoma cells; assay: MTT antiproliferative assay, HCT-116; format: cell-based; conditions: Homo sapiens, HCT-116; MTT, 72 h treatment, mean ± SD; read-out: IC50 (µM) ± S.D. HCT-116 Colon Cancer
Procedure: (§1) The proliferation inhibitory activities of the carboxamide derivatives 4-16 were tested in vitro using the MTT assay against the human cancer MCF-7, K-562, and HCT-116 cell lines in addition to normal human cells (dermal fibroblasts) to evaluate their putative selective cytotoxic activities. […] The human colorectal carcinoma (HCT-116), human breast adenocarcinoma (MCF-7), human chronic myelogenous leukemia (K-562), and human dermal fibroblast normal cell lines were purchased from were purchased from the American Type Culture Collection (ATCC) (Manassas, VA, USA) and stored in liquid nitrogen. Cells were passaged twice weekly upon reaching 70–80% confluency, and only low passage numbers (≤ 10) were used in all experiments. Mycoplasma contamination was monitored using the Lonza MycoAlert™ mycoplasma detection kit. Cells were sub-cultured and maintained with appropriate media: RPMI-1640 medium (Buffalo, New York, USA) was used to grow MCF-7, K-562 and HCT-116 cancer cells, while fibroblast cells were cultured in Iscove’s Modified Dulbecco’s medium (IMDM) (EuroClone S.p.A., Pero, MI, Italy). Both media were supplemented with 10% (v/v) heat-inactivated fetal bovine serum (FBS) (Gibco, CA, USA), 2 mM of L-Glutamine, 100 units/mL of Penicillin, and 100 μg/mL of Streptomycin (EuroClone, Italy). Cells were maintained at 37 °C in a humidified incubator with 5% CO2 (NuAire, Plymouth, MN, USA). The MTT colorimetric assay utilized in this study was previously described and adapted from Mosmann. The MTT regent [3-(4,5-dimethylthiazol-2-yl)-2,5-diphenyl tetrazolium bromide] was employed to evaluate the antiproliferative activities of carboxamides 4-16 against MCF-7, K-562, HCT-116, and dermal normal fibroblast cell lines. Cells (6–8 × 10^3 per well, 180 µL) were seeded into 96-well plates (Corning, New York, USA) and allowed to adhere overnight at 37 °C in a humidified 5% CO₂ incubator. Fresh top stock solutions of the test compounds (10 mM in DMSO) were then freshly prepared, followed by serial dilutions in the appropriate culture media before being added to the seeded cells. […] Initial screening for potential antiproliferative activity was carried out using two concentration points (10 µM and 50 µM) in triplicate over a 72-hour incubation period. […] Following 72 h of exposure, MTT solution (2 mg/mL in PBS, 50 µL per well) was added, and plates were incubated for an additional 4 h. The supernatant in each well was then removed, and the resulting formazan crystals were solubilized by adding DMSO (150 µL per well). Absorbance, measured as the optical density (OD), was recorded at 570 nm using a microplate reader (Thermo Fisher Scientific, Waltham, MA, USA). The detected signal intensity corresponds to metabolic activity, which directly correlates with the viable cell number. All experiments were performed in triplicate, and the results are presented as the mean ± standard deviation (SD). The IC50 values for antiproliferative activity were calculated using nonlinear regression analysis in GraphPad Prism software (GraphPad Prism version 9.0.0 for Windows, GraphPad Software, San Diego, California USA). Additionally, a two-way ANOVA test was conducted to analyze significant variations in IC50 values, with a significant level set at α = 0.05.

| SMILES | IC50 |
| --- | --- |
| O=C(Nc1cccc2c1C(=O)c1ccccc1C2=O)c1ccco1 [Compound 16, N-(9,10-Dihydro-9,10-dioxoanthracen-1-yl)-2-furamide] | 3.11 ± 0.049 µM |
| O=C(Nc1cccc2c1C(=O)c1ccccc1C2=O)c1cc2ccccc2[nH]1 [Compound 12, N-(9,10-Dihydro-9,10-dioxoanthracen-1-yl)-1H-indole-2-carboxamide] | 3.98 ± 0.06 µM |
| O=C(Nc1ccc2c(c1)C(=O)c1ccccc1C2=O)c1cc2ccccc2[nH]1 [Compound 14, N-(9,10-Dihydro-9,10-dioxoanthracen-2-yl)-1H-indole-2-carboxamide] | 2.64 ± 0.07 µM |
| O=C(Nc1ccccn1)c1cc2ccccc2[nH]1 [Compound 10, N-(Pyridin-2-yl)-1H-indole-2-carboxamide] | 1.01 ± 0.04 µM |

Continued by falling IC50, values first:

| IC50 | SMILES |
| --- | --- |
| 32 ± 0.83 µM | O=C(Nc1ccc([N+](=O)[O-])cc1)c1cc2ccccc2[nH]1 [Compound 8, N-(4-Nitrophenyl)-1H-indole-2-carboxamide] |
| 25.4 ± 0.38 µM | O=C(Nc1ccc(F)cc1)c1cc2ccccc2[nH]1 [Compound 6, N-(4-Florophenyl)-1H-indole-2-carboxamide] |
| 3.94 ± 0.03 µM | O=C(Nc1ccc(Cl)cc1)c1cc2ccccc2[nH]1 [Compound 4, N-(4-Chlorophenyl)-1H-indole-2-carboxamide] |

same assay, conditions: fibroblasts/colon cancer; first value of the SI cell

| SMILES | Selectivity index (IC50 normal fibroblast/IC50 HCT-116) |
| --- | --- |
| O=C(Nc1ccc(F)cc1)c1cc2ccccc2[nH]1 [Compound 6, N-(4-Florophenyl)-1H-indole-2-carboxamide] | > 3.9 |
| O=C(Nc1cccc2c1C(=O)c1ccccc1C2=O)c1ccco1 [Compound 16, N-(9,10-Dihydro-9,10-dioxoanthracen-1-yl)-2-furamide] | > 32.2 |
| O=C(Nc1ccc([N+](=O)[O-])cc1)c1cc2ccccc2[nH]1 [Compound 8, N-(4-Nitrophenyl)-1H-indole-2-carboxamide] | > 3.1 |
| O=C(Nc1cccc2c1C(=O)c1ccccc1C2=O)c1cc2ccccc2[nH]1 [Compound 12, N-(9,10-Dihydro-9,10-dioxoanthracen-1-yl)-1H-indole-2-carboxamide] | > 25.1 |
| O=C(Nc1ccc2c(c1)C(=O)c1ccccc1C2=O)c1cc2ccccc2[nH]1 [Compound 14, N-(9,10-Dihydro-9,10-dioxoanthracen-2-yl)-1H-indole-2-carboxamide] | > 37.9 |
| O=C(Nc1ccc(Cl)cc1)c1cc2ccccc2[nH]1 [Compound 4, N-(4-Chlorophenyl)-1H-indole-2-carboxamide] | > 25.4 |
| O=C(Nc1ccccn1)c1cc2ccccc2[nH]1 [Compound 10, N-(Pyridin-2-yl)-1H-indole-2-carboxamide] | > 99.4 |

same assay, conditions: ratio of MCF-7 to HCT-116 IC50

| SMILES | Selectivity for HCT-116 over MCF-7 |
| --- | --- |
| O=C(Nc1cccc2c1C(=O)c1ccccc1C2=O)c1ccco1 [Compound 16, N-(9,10-Dihydro-9,10-dioxoanthracen-1-yl)-2-furamide] | 10.6 fold |
| O=C(Nc1ccccn1)c1cc2ccccc2[nH]1 [Compound 10, N-(Pyridin-2-yl)-1H-indole-2-carboxamide] | 69.6 fold |

test system: MCF-7 human breast adenocarcinoma cells; assay: MTT antiproliferative assay, MCF-7; format: cell-based; conditions: Homo sapiens, MCF7, 72 h, MTT, 72 h treatment, mean ± SD; read-out: IC50 (µM) ± S.D. MCF-7 Breast Cancer
Procedure: as §1

| SMILES | IC50 |
| --- | --- |
| O=C(Nc1cccc2c1C(=O)c1ccccc1C2=O)c1ccco1 [Compound 16, N-(9,10-Dihydro-9,10-dioxoanthracen-1-yl)-2-furamide] | 33.1 ± 1.66 µM |
| O=C(Nc1ccc2c(c1)C(=O)c1ccccc1C2=O)c1cc2ccccc2[nH]1 [Compound 14, N-(9,10-Dihydro-9,10-dioxoanthracen-2-yl)-1H-indole-2-carboxamide] | 7.16 ± 0.36 µM |
| O=C(Nc1ccccn1)c1cc2ccccc2[nH]1 [Compound 10, N-(Pyridin-2-yl)-1H-indole-2-carboxamide] | 70.3 ± 3.52 µM |

Next, values leading:

| IC50 | SMILES |
| --- | --- |
| > 100 µM | O=C(Nc1ccc([N+](=O)[O-])cc1)c1cc2ccccc2[nH]1 [Compound 8, N-(4-Nitrophenyl)-1H-indole-2-carboxamide] |
| 80.8 ± 4.04 µM | O=C(Nc1ccc(F)cc1)c1cc2ccccc2[nH]1 [Compound 6, N-(4-Florophenyl)-1H-indole-2-carboxamide] |
| 10.6 ± 0.53 µM | O=C(Nc1ccc(Cl)cc1)c1cc2ccccc2[nH]1 [Compound 4, N-(4-Chlorophenyl)-1H-indole-2-carboxamide] |

same assay, conditions: MTT, 72 h treatment, mean ± SD

| SMILES | IC50 (µM) ± S.D. MCF-7 Breast Cancer |
| --- | --- |
| O=C(Nc1ccc([N+](=O)[O-])cc1)c1cc2ccccc2[nH]1 [Compound 8, N-(4-Nitrophenyl)-1H-indole-2-carboxamide] | exceptional resistance |

same assay, conditions: fibroblasts/breast cancer; second value of the SI cell

| SMILES | Selectivity index (IC50 normal fibroblast/IC50 MCF-7) |
| --- | --- |
| O=C(Nc1ccc(F)cc1)c1cc2ccccc2[nH]1 [Compound 6, N-(4-Florophenyl)-1H-indole-2-carboxamide] | > 1.2 |
| O=C(Nc1cccc2c1C(=O)c1ccccc1C2=O)c1ccco1 [Compound 16, N-(9,10-Dihydro-9,10-dioxoanthracen-1-yl)-2-furamide] | > 3.0 |
| O=C(Nc1cccc2c1C(=O)c1ccccc1C2=O)c1cc2ccccc2[nH]1 [Compound 12, N-(9,10-Dihydro-9,10-dioxoanthracen-1-yl)-1H-indole-2-carboxamide] | > 11.0 |
| O=C(Nc1ccc2c(c1)C(=O)c1ccccc1C2=O)c1cc2ccccc2[nH]1 [Compound 14, N-(9,10-Dihydro-9,10-dioxoanthracen-2-yl)-1H-indole-2-carboxamide] | > 14.0 |
| O=C(Nc1ccc(Cl)cc1)c1cc2ccccc2[nH]1 [Compound 4, N-(4-Chlorophenyl)-1H-indole-2-carboxamide] | > 9.4 |
| O=C(Nc1ccccn1)c1cc2ccccc2[nH]1 [Compound 10, N-(Pyridin-2-yl)-1H-indole-2-carboxamide] | > 1.4 |

test system: K-562 human chronic myelogenous leukemia cells; assay: MTT antiproliferative assay, K-562; format: cell-based; conditions: Homo sapiens, K562, 72 h, MTT, 72 h treatment, mean ± SD; read-out: IC50 (µM) ± S.D. K-562 Leukemia
Procedure: as §1

| SMILES | IC50 |
| --- | --- |
| O=C(Nc1cccc2c1C(=O)c1ccccc1C2=O)c1ccco1 [Compound 16, N-(9,10-Dihydro-9,10-dioxoanthracen-1-yl)-2-furamide] | > 100 µM |
| O=C(Nc1cccc2c1C(=O)c1ccccc1C2=O)c1cc2ccccc2[nH]1 [Compound 12, N-(9,10-Dihydro-9,10-dioxoanthracen-1-yl)-1H-indole-2-carboxamide] | 0.33 ± 0.02 µM |
| O=C(Nc1ccccn1)c1cc2ccccc2[nH]1 [Compound 10, N-(Pyridin-2-yl)-1H-indole-2-carboxamide] | > 100 µM |

Continued, values first:

| IC50 | SMILES |
| --- | --- |
| > 100 µM | O=C(Nc1ccc([N+](=O)[O-])cc1)c1cc2ccccc2[nH]1 [Compound 8, N-(4-Nitrophenyl)-1H-indole-2-carboxamide] |
| 84.6 ± 4.23 µM | O=C(Nc1ccc(F)cc1)c1cc2ccccc2[nH]1 [Compound 6, N-(4-Florophenyl)-1H-indole-2-carboxamide] |
| 0.61 ± 0.03 µM | O=C(Nc1ccc(Cl)cc1)c1cc2ccccc2[nH]1 [Compound 4, N-(4-Chlorophenyl)-1H-indole-2-carboxamide] |

same assay, conditions: fibroblasts/leukemia; third value of the SI cell

| SMILES | Selectivity index (IC50 normal fibroblast/IC50 K-562) |
| --- | --- |
| O=C(Nc1ccc(F)cc1)c1cc2ccccc2[nH]1 [Compound 6, N-(4-Florophenyl)-1H-indole-2-carboxamide] | > 1.2 |
| O=C(Nc1cccc2c1C(=O)c1ccccc1C2=O)c1cc2ccccc2[nH]1 [Compound 12, N-(9,10-Dihydro-9,10-dioxoanthracen-1-yl)-1H-indole-2-carboxamide] | > 303 |
| O=C(Nc1ccc2c(c1)C(=O)c1ccccc1C2=O)c1cc2ccccc2[nH]1 [Compound 14, N-(9,10-Dihydro-9,10-dioxoanthracen-2-yl)-1H-indole-2-carboxamide] | > 164 |
| O=C(Nc1ccc(Cl)cc1)c1cc2ccccc2[nH]1 [Compound 4, N-(4-Chlorophenyl)-1H-indole-2-carboxamide] | > 164 |

test system: human dermal fibroblast normal cell line; assay: MTT assay, normal dermal fibroblasts; format: cell-based; conditions: 72 h treatment, read-out: IC50 (µM) ± S.D. Dermal Fibroblast Normal
Procedure: as §1

| SMILES | IC50 |
| --- | --- |
| O=C(Nc1ccc(F)cc1)c1cc2ccccc2[nH]1 [Compound 6, N-(4-Florophenyl)-1H-indole-2-carboxamide] | > 100 µM |
| O=C(Nc1cccc2c1C(=O)c1ccccc1C2=O)c1ccco1 [Compound 16, N-(9,10-Dihydro-9,10-dioxoanthracen-1-yl)-2-furamide] | > 100 µM |
| O=C(Nc1ccc([N+](=O)[O-])cc1)c1cc2ccccc2[nH]1 [Compound 8, N-(4-Nitrophenyl)-1H-indole-2-carboxamide] | > 100 µM |
| O=C(Nc1cccc2c1C(=O)c1ccccc1C2=O)c1cc2ccccc2[nH]1 [Compound 12, N-(9,10-Dihydro-9,10-dioxoanthracen-1-yl)-1H-indole-2-carboxamide] | > 100 µM |
| O=C(Nc1ccc2c(c1)C(=O)c1ccccc1C2=O)c1cc2ccccc2[nH]1 [Compound 14, N-(9,10-Dihydro-9,10-dioxoanthracen-2-yl)-1H-indole-2-carboxamide] | > 100 µM |
| O=C(Nc1ccc(Cl)cc1)c1cc2ccccc2[nH]1 [Compound 4, N-(4-Chlorophenyl)-1H-indole-2-carboxamide] | > 100 µM |
| O=C(Nc1ccccn1)c1cc2ccccc2[nH]1 [Compound 10, N-(Pyridin-2-yl)-1H-indole-2-carboxamide] | > 100 µM |
